Blank lines part the entries; values can stand above or below the molecule they belong to.
How the values were obtained:
[1] = Absorbance and fluorescence emission spectra (SpectraMax M2); format: physicochemical; settings: for λmax Abs. (nm) / λmax Em. (nm): MKAC compound library; for λmax Abs. (nm) / λmax Absorp. (nm): absorbance maximum; for λmax Em. (nm) / λmax Emission (nm): fluorescence emission maximum; for λmax Absorp. (nm) / λmax Emission (nm): MKCA compound library
Description: BDC-8 (Blue): absorbance λmax=473 nm, emission λmax=585 nm; MK101-8 (Green): absorbance λmax=474 nm, emission λmax=563 nm; MKHA374-48 (Yellow): absorbance λmax=468 nm, λem=557 nm. The corresponding spectra of a reported BODIPY (BD-27; Red) are also included for comparison: absorbance λmax=551 nm, emission λmax=568 nm. The structures of BDC-8, MK101-8, MKHA374-48 and BD-27 are also depicted.
(§1) ^1H-NMR, ^19F-NMR and ^13C-NMR spectra were recorded on Bruker ACF300 (300 MHz), DPX300 (300 MHz) and AMX500 (500 MHz) spectrometers. High resolution mass spectra (ESI) were obtained on a Finnigan/MAT 95XL-T spectrometer. Spectroscopic and quantum yield data were measured on a SpectraMax M2 spectrophotometer (Molecular Devices). Data analysis was performed using GraphPrism 5.0. Analytical characterization was performed on a HPLC-MS (Agilent-1200 series) with a DAD detector and a single quadrupole mass spectrometer (6130 series) with an ESI probe. Analytical HPLC method: eluents, A: H2O (0.1% HCOOH), B: CH3CN (0.1% HCOOH), gradient 5% B to 95% B (10 min). Reverse-phase Phenomenex C18 Luna column (4.6×50 mm^2, 3.5 […]), flow rate: 1 mL/min.

[2] = Quantum yield measurements versus Acridine Yellow in EtOH; format: physicochemical; settings: for φ (quantum yield): excitation 460 nm; for φ (%): quantum yield
Description: as §1
Quantum yields were calculated by measuring the integrated emission area of the fluorescent spectra and comparing to the area measured for Acridine Yellow in EtOH when excited at 460 nm (Φfluorescence^AcridineYellow=0.47). Quantum yields for the amino-triazolyl-BODIPYs were calculated using the equation below, where F represents the area of fluorescent emission, η is the refractive index of the solvent, and Abs is absorbance at the excitation wavelength selected for standards and samples. Emission was integrated between 510 and 700 nm.

λmax Absorp. ([1]; BDCCA library, Table 4): 464 nm
λmax Emission ([1]; BDCCA library, Table 4): 586 nm
φ (quantum yield) ([2]; BDCCA library, Table 4): 1.1%
SMILES: COc1ccc2cc(-c3cn(-c4ccc5n4[B-](F)(F)[N+]4=C(N6CCCCC6)C=CC4=C5c4ccc(NC(=O)CCl)cc4)nn3)ccc2c1 [BDCCA-22]

λmax Absorp. ([1]; BDC library, Table 2): 474 nm
λmax Emission ([1]; BDC library, Table 2): 586 nm
φ (quantum yield) ([2]; BDC library, Table 2): 0.13%
SMILES: Nc1ccc(C2=C3C=CC(N4CCCCC4)=[N+]3[B-](F)(F)n3c2ccc3-n2cc(CO)nn2)cc1 [BDC-70]

λmax Absorp. ([1]; BDCAC library, Table 3): 467 nm
λmax Emission ([1]; BDCAC library, Table 3): 577 nm
φ (quantum yield) ([2]; BDCAC library, Table 3): 1.3%
SMILES: CCCCc1cn(-c2ccc3n2[B-](F)(F)[N+]2=C(N4CCCCC4)C=CC2=C3c2ccc(NC(C)=O)cc2)nn1 [BDCAC-42]

λmax Absorp. ([1]; BDCAC library, Table 3): 465 nm
λmax Emission ([1]; BDCAC library, Table 3): 578 nm
φ (quantum yield) ([2]; BDCAC library, Table 3): 1.4%
SMILES: CCc1ccc(-c2cn(-c3ccc4n3[B-](F)(F)[N+]3=C(N5CCCCC5)C=CC3=C4c3ccc(NC(C)=O)cc3)nn2)cc1 [BDCAC-46]

λmax Abs. (nm) [1]: 467 nm
λmax Em. (nm) [1]: 562 nm
φ (%) ([2]; MKAC compound library): 16.81%
SMILES: CC(=O)Nc1ccc(C2=C3C=CC(NCc4cc(F)cc(F)c4)=[N+]3[B-](F)(F)n3c2ccc3-n2cc(CC3CCCCC3)nn2)cc1 [MKAC412-8]

λmax Absorp. (nm) [1]: 466 nm
λmax Emission (nm) [1]: 585 nm
φ (%) ([2]; MKCA compound library): 2.33%
SMILES: CN(Cc1ccccc1)Cc1cn(-c2ccc3n2[B-](F)(F)[N+]2=C(N4CCc5ccccc5C4)C=CC2=C3c2ccc(NC(=O)CCl)cc2)nn1 [MKCA66-18]

λmax Absorp. ([1]; BDC library, Table 2): 473 nm
λmax Emission ([1]; BDC library, Table 2): 585 nm
absorbance λmax ([1]; FIG. 2 normalized spectra): 473 nm
emission λmax ([1]; FIG. 2 normalized spectra): 585 nm
φ (quantum yield) ([2]; BDC library, Table 2): 0.24%
SMILES: Nc1ccc(C2=C3C=CC(N4CCCCC4)=[N+]3[B-](F)(F)n3c2ccc3-n2cc(CC3CCCCC3)nn2)cc1 [BDC-8]

λmax Abs. (nm) [1]: 466 nm
λmax Em. (nm) [1]: 562 nm
φ (%) ([2]; MKAC compound library): 26.84%
SMILES: CC(=O)Nc1ccc(C2=C3C=CC(NCc4cc(F)cc(F)c4)=[N+]3[B-](F)(F)n3c2ccc3-n2cc(C3CC3)nn2)cc1 [MKAC412-4]

λmax Absorp. ([1]; BDCAC library, Table 3): 467 nm
λmax Emission ([1]; BDCAC library, Table 3): 560 nm
φ (quantum yield) ([2]; BDCAC library, Table 3): 2.4%
SMILES: CC(=O)Nc1ccc(C2=C3C=CC(N4CCCCC4)=[N+]3[B-](F)(F)n3c2ccc3-n2cc(C3CCCCC3)nn2)cc1 [BDCAC-6]

λmax Absorp. ([1]; BDCCA library, Table 4): 465 nm
λmax Emission ([1]; BDCCA library, Table 4): 568 nm
φ (quantum yield) ([2]; BDCCA library, Table 4): 1.3%
SMILES: O=C(CCl)Nc1ccc(C2=C3C=CC(N4CCCCC4)=[N+]3[B-](F)(F)n3c2ccc3-n2cc(-c3ccc(F)cc3F)nn2)cc1 [BDCCA-26]

λmax Absorp. ([1]; MK library, Table 5): 476 nm
λmax Emission ([1]; MK library, Table 5): 566 nm
φ (quantum yield) ([2]; MK library, Table 5): 0.34%
SMILES: CN(Cc1ccccc1)C1=[N+]2C(=C(c3ccc(N)cc3)c3ccc(-n4cc(C5CC5)nn4)n3[B-]2(F)F)C=C1 [MK195-4]

λmax Absorp. ([1]; BDC library, Table 2): 472 nm
λmax Emission ([1]; BDC library, Table 2): 570 nm
φ (quantum yield) ([2]; BDC library, Table 2): 0.20%
SMILES: Nc1ccc(C2=C3C=CC(N4CCCCC4)=[N+]3[B-](F)(F)n3c2ccc3-n2cc(-c3ccc(-c4ccccc4)cc3)nn2)cc1 [BDC-23]

λmax Absorp. (nm) [1]: 467 nm
λmax Emission (nm) [1]: 564 nm
φ (%) ([2]; MKCA compound library): 36.92%
SMILES: O=C(CCl)Nc1ccc(C2=C3C=CC(NCc4cc(F)cc(F)c4)=[N+]3[B-](F)(F)n3c2ccc3-n2cc(CC3CCCCC3)nn2)cc1 [MKCA412-8]

λmax Absorp. (nm) [1]: 469 nm
λmax Emission (nm) [1]: 587 nm
φ (%) ([2]; MKCA compound library): 3.33%
SMILES: O=C(CCl)Nc1ccc(C2=C3C=CC(N4CCc5ccccc5C4)=[N+]3[B-](F)(F)n3c2ccc3-n2cc(C3CC3)nn2)cc1 [MKCA66-4]

λmax Absorp. ([1]; BDCAC library, Table 3): 465 nm
λmax Emission ([1]; BDCAC library, Table 3): 585 nm
φ (quantum yield) ([2]; BDCAC library, Table 3): 1.2%
SMILES: COc1ccc2cc(-c3cn(-c4ccc5n4[B-](F)(F)[N+]4=C(N6CCCCC6)C=CC4=C5c4ccc(NC(C)=O)cc4)nn3)ccc2c1 [BDCAC-22]

λmax Absorp. ([1]; BDCCA library, Table 4): 463 nm
λmax Emission ([1]; BDCCA library, Table 4): 555 nm
φ (quantum yield) ([2]; BDCCA library, Table 4): 2.7%
SMILES: Cc1cccc(-c2cn(-c3ccc4n3[B-](F)(F)[N+]3=C(N5CCCCC5)C=CC3=C4c3ccc(NC(=O)CCl)cc3)nn2)c1 [BDCCA-45]

λmax Abs. (nm) [1]: 467 nm
λmax Em. (nm) [1]: 562 nm
φ (%) ([2]; MKAC compound library): 13.79%
SMILES: COc1ccc(OC)c(CNC2=[N+]3C(=C(c4ccc(NC(C)=O)cc4)c4ccc(-n5cc(CC(C)C)nn5)n4[B-]3(F)F)C=C2)c1 [MKAC181-43]

Source: patent US9513294B2, “Megastokes amino-triazolyl-BODIPY compounds and applications to live neuron staining and human serum albumin FA1 drug site probing” (National University of Singapore, priority 2012, dated 2016)
